Data set [1] deals with E. coli E423-17. The format is cell-based, Escherichia coli.
The next data set deals with S. aureus USA300 LAC. Description: microbe, parasite or virus in culture. The data set is classed as cell-based, Staphylococcus aureus. The gist of the method: (§1)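 Broth microdilution with twofold peptide dilutions, using exponential-phase bacteria at about 10^5 CFU/mL in MHB, incubated overnight at 37 °C and read at OD600. MIC, reported as a range, is the peptide concentration with no growth. Some tests used diluted MHB/TSB/LB, adjusted pH, or added NaCl or human serum.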

Data set [2] concerns E. coli E423-17. The format is cell-based, Escherichia coli. To be noted: DMEM.
For a further data set, the system named is human red blood cells. In words: Hemolytic assay. The format is cell-based. As to the method: The hemolytic effects of peptides were evaluated using a method with minor modifications (Lakshmaiah Narayana, et al. (2021) ACS Infect. Dis., 7:1795-1808). Human red blood cells (hRBCs, UNMC Blood Bank) were washed (3×) with blood bank saline (isotonic solution 0.90% w/v, Fisher). Cells were diluted to 2% using the saline solution, and aliquots of 90 μL were added to a 96-well polystyrene microplate containing 10 μL of serially diluted peptide solutions. After incubation at 37° C. for 1 hour, plates were centrifuged at 500 g for 5 minutes. Aliquots of the supernatant were transferred to a 96-well microplate. The amount of hemoglobin released was measured at 545 nm by using a ChroMate™ microplate reader. […] HC50 is defined as the concentration of the peptide that caused 50% lysis.
The hemolytic effects of peptides were evaluated (Narayana, et al. (2020) Proc. Natl. Acad. Sci., 117(32):19446-9454). In brief, human red blood cells (UNMC Blood Bank) were washed (3×) and diluted to 2% using the saline solution. Aliquots of 90 μL were mixed with 10 μL of serially diluted peptide solutions. After incubation at 37° C. for 1 hour, plates were centrifuged at 500 g for 5 minutes and aliquots of the supernatant were transferred to a new 96-well microplate to measure the amount of hemoglobin released at 545 nm (relative to 1% Triton® X-100) using a ChroMate® Microplate Reader.

The test system of data set [3] is P. aeruginosa E411-17. Description: microbe, parasite or virus in culture. The format is cell-based, Pseudomonas aeruginosa. To be noted: for MIC: read-out: Antimicrobial activity (MIC). The method, boiled down: as §1
Another data set deals with A. baumannii B28-16. The data set is classed as cell-based, Acinetobacter baumannii. The method, boiled down: (§2)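 Peptides twofold serially diluted against exponential-phase resistant clinical isolates at ~10^5 CFU/mL in MHB (also diluted MHB, TSB or LB in one protocol), CLSI-based broth microdilution. Incubated overnight at 37° C., OD 600 nm read; MIC taken as lowest concentration without growth, reported as ranges.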

Data set [4] deals with P. aeruginosa E411-17. In words: Killing kinetics. The data set is classed as cell-based, Pseudomonas aeruginosa. Conditions: 4×MIC. As to the method:
For bacterial killing kinetics study, MRSA USA300 and P. aeruginosa E411-17 was grown to the exponential phase (OD600˜0.3) in MHB. The culture was diluted to OD600 0.001 (˜10^5 CFU/mL). One milliliter of bacterial suspension was then mixed with the peptide, colistin or daptomycin at 4×MIC and incubated at 37° C. After 15, 30, 60, 90, and 120 minutes incubation, 50 μL was taken and serially diluted with 1×PBS. Then, 50 μL of the diluted suspension was plated on Mannitol Salt Agar (MRSA USA300) or Cetrimide Agar (P. aeruginosa E411-17) plates (NEOGEN, MI). The plates were incubated overnight at 37° C. for bacterial CFU count the next day.

For data set [5], the system named is E. coli E423-17. Description: Membrane permeabilization (propidium iodide). The data set is classed as cell-based, Escherichia coli. Conditions: Example 1, 1×MIC.
Data set [6] can be described thus: Cell viability assay (MTS). The format is cell-based, human. To be noted: human; 24 h; read-out: 50% lethal concentration (LC50). As for the experimental part: Human keratinocyte HaCaT cells were grown in DMEM/high glucose (Hyclone, UT) containing 10% fetal bovine serum (Mediatech, Corning, Manassas, VA). […] The mixture was incubated at 37° C. in 5% CO2 for 24 hours.
(§3) HepG2 cells were cultured in ATCC-formulated Eagle's Minimum Essential Medium with 10% FBS. A549 cells were grown in ATCC-formulated F-12K Medium containing 10% FBS.

A further data set deals with S. epidermidis 1457. In words: microbe, parasite or virus in culture. The data set is classed as cell-based, Staphylococcus epidermidis. To be noted: read-out: Antimicrobial activity (MIC) S. epidermidis 1457. The method, boiled down: as §2
The test system of the next data set is P. aeruginosa E416-17. The data set is classed as cell-based, Pseudomonas aeruginosa. As for the experimental part: Peptide activity against bacteria were tested using the CLSI standard procedure with minor modifications (Clinical and Laboratory Standards Institute (2018) Performance standards for antimicrobial susceptibility testing, 9th ed.; Mishra, et al. (2019) Proc. Natl. Acad. Sci., 116(27):13517-13522). In brief, a peptide concentration gradient with twofold dilution was made in the 96-well polystyrene microplate at 10 μL per well. Bacteria were grown to the exponential phase (i.e., optical density at 600 nm≈0.5), diluted to ˜10^5 CFU/mL in MHB, and partitioned into the 96-well microplate at 90 μL per well. The microplates were incubated at 37° C. overnight and read on a ChroMate® 4300 Microplate Reader at 600 nm (GMI, Ramsey, MN). The peptide concentration in the wells without bacterial growth is the minimal inhibitory concentration (MIC). As the convention, MIC values were represented as ranges.

The test system of the next data set is K. pneumoniae E406-17. The data set is classed as cell-based, Klebsiella pneumoniae. The method, boiled down: as §2
A short description of a further data set: Cytotoxicity assay (MTS). The data set is classed as cell-based. To be noted: human, HepG2 cells, read-out: LC50. As to the method: as §3

Where two headings read alike, the source gives them in different places. Where no end group is shown, it is not given here.

Regarding “RIKDFLRNLV-NH2 (C-terminus assumed) [RIK-10]”, the “Antimicrobial activity (MIC)” value was 32 to 64 µM in the data set on E. coli E423-17 [1] (E423-17), 16 µM in the data set with E. coli E423-17 [1] (MHB 100%), “active” with S. aureus USA300 LAC (MHB 12.5%) and 8 µM in the data set on E. coli E423-17 [2].
For Colistin [reference compound], in the data set with E. coli E423-17 [1] (MHB, Table 8), the “Antimicrobial activity (MIC) E. coli E423-17” value lay within 1 to 2 µM. Also, in the data set with human red blood cells (at 400 μM), the hemolysis result is “did not lyse human red blood cells even at 400 μM”. The “Antimicrobial activity (MIC)” value with P. aeruginosa E411-17 [3] (Human serum 5%), with P. aeruginosa E411-17 [3] (pH 7.22) and in the data set on P. aeruginosa E411-17 [3] (pH 8.13) was 1 to 2 µM throughout. Moreover, the MIC in the data set with P. aeruginosa E411-17 [3] (Human serum 10%) is given as 2 µM; in the data set on P. aeruginosa E411-17 [3] (NaCl (150 mM)), 2 µM; in the data set on P. aeruginosa E411-17 [3] (pH 6.21), 2 µM; in the data set with S. aureus USA300 LAC (Human serum 5%, read-out: Antimicrobial activity (MIC)) it was >8 µM; in the data set with S. aureus USA300 LAC (Human serum 10%, read-out: Antimicrobial activity (MIC)), >8 µM; in the data set on S. aureus USA300 LAC (NaCl (150 mM), read-out: Antimicrobial activity (MIC)) it was >8 µM. Further, the MIC with S. aureus USA300 LAC (pH 6.21, read-out: Antimicrobial activity (MIC)) was >8 µM; in the data set on S. aureus USA300 LAC (pH 7.22, read-out: Antimicrobial activity (MIC)), >8 µM; with S. aureus USA300 LAC (pH 8.13, read-out: Antimicrobial activity (MIC)), >8 µM. The “Antimicrobial activity (MIC) P. aeruginosa E411-17” value with P. aeruginosa E411-17 [3] (MHB, Table 8) lay in the range of 1 to 2 µM. In the data set on A. baumannii B28-16 (MHB, Table 8), the “Antimicrobial activity (MIC) A. baumannii B28-16” value was determined as 2 µM. This substance showed a time to kill in the data set on P. aeruginosa E411-17 [4] of 30 min. Also, the membrane permeabilization entry with E. coli E423-17 [5] is “powerful membrane permeator”.
On to RWKRFLRNWV-NH2 [RIK-10+], for which the “Antimicrobial activity (MIC) E. coli E423-17” value in the data set with E. coli E423-17 [1] (E423-17) is 4 µM. In addition, in the data set with E. coli E423-17 [1] (E423-17), the “MIC E. coli E423-17” value lay in the range of 4 to 8 µM. Also, in the data set on human red blood cells (red cells of human), the “Hemolysis (HC10), 10% hemolytic concentration” value was 220 µM. In the data set on P. aeruginosa E411-17 [3] (E411-17), the “Antimicrobial activity (MIC) P. aeruginosa E411-17” value came to 4 µM. The MIC in the data set on P. aeruginosa E411-17 [3] (E411-17, pH 6.21) is 8 µM; in the data set on P. aeruginosa E411-17 [3] (E411-17, pH 8.13), 4 µM; in the data set on P. aeruginosa E411-17 [3] (E411-17) it was >32 µM; with S. aureus USA300 LAC (USA300, pH 6.21, read-out: Antimicrobial activity (MIC)) it was >32 µM; with S. aureus USA300 LAC (USA300, pH 7.22, read-out: Antimicrobial activity (MIC)) it was 16 µM; in the data set on S. aureus USA300 LAC (USA300, pH 8.13, read-out: Antimicrobial activity (MIC)) it was 8 µM. For the same substance, the MIC is listed as > 32 µM in the data set on S. aureus USA300 LAC (USA300, read-out: Antimicrobial activity (MIC)); 16 µM with S. aureus USA300 LAC (USA300, read-out: Antimicrobial activity (MIC) S. aureus USA300); >32 µM in the data set on S. epidermidis 1457. The “Antimicrobial activity (MIC)” value in the data set on P. aeruginosa E411-17 [3] (E411-17, pH 7.22) lay within 4 to 8 µM. In addition, the “MIC S. aureus USA300” value against S. aureus USA300 LAC (USA300) lay within 16 to 32 µM. Further, the CC50 at 24 h (in data set [6]; in “Cytotoxicity assay (MTS)”) was 100 µM in each case. Further, in the data set with A. baumannii B28-16 (B28-16), the “Antimicrobial activity (MIC) A. baumannii B28-16” value is 8 µM. The “MIC P. aeruginosa E416-17” value against P. aeruginosa E416-17 worked out at 4 µM. Also, the “MIC K. pneumoniae E406-17” value against K. pneumoniae E406-17 came to 32 µM.

These data come from patent US20250101062A1, “ANTIMICROBIAL PEPTIDES” (Board of Regents of the University of Nebraska, priority 2023, published 2025).
